Assay results: PubChem BioAssay (NCI)
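Values below derive from 48-hour exposures of cells grown in 96-well plates, with endpoints linearly interpolated between the two concentrations bracketing the appropriate inhibition level. GI50: concentration for 50% inhibition of growth. TGI marks complete inhibition of growth.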

Assays:
Assay in all cases: DTP human tumour cell line panel, 48 h
SN12C renal = tested on: SN12C renal
MDA-MB-435 = tested on: MDA-MB-435
LOX IMVI melanoma = tested on: LOX IMVI melanoma
MCF7 breast = tested on: MCF7 breast
HS 578T breast = tested on: HS 578T breast
786-0 renal = tested on: 786-0 renal
SNB-75 CNS = tested on: SNB-75 CNS
A498 renal = tested on: A498 renal
ACHN renal = tested on: ACHN renal
HCT-116 colon = tested on: HCT-116 colon

Compound | GI50 (SN12C renal) [nM] | TGI (SN12C renal) [nM] | GI50 (MDA-MB-435) [nM] | TGI (MDA-MB-435) [nM] | GI50 (LOX IMVI melanoma) [nM] | TGI (LOX IMVI melanoma) [nM] | GI50 (MCF7 breast) [nM] | TGI (MCF7 breast) [nM] | GI50 (HS 578T breast) [nM] | TGI (HS 578T breast) [nM] | GI50 (786-0 renal) [nM] | TGI (786-0 renal) [nM] | GI50 (SNB-75 CNS) [nM] | TGI (SNB-75 CNS) [nM] | GI50 (A498 renal) [nM] | TGI (A498 renal) [nM] | GI50 (ACHN renal) [nM] | TGI (ACHN renal) [nM] | GI50 (HCT-116 colon) [nM] | TGI (HCT-116 colon) [nM]
C=CCN=c1sc2c(n1NC(=O)c1cc3ccc1CCc1ccc(cc1)CC3)C(=O)c1ccccc1C2=O | 1220 | 2790 | 194 | 363 | 532 | 2100 | 1230 | 3360 | 2040 | 6930 | 2300 | 5700 | 843 | 2770 | 10500 | 47000 | 1420 | 2910 | 577 | 2580
O=C(O)CN(CC(=O)O)Cc1cc(C#Cc2ccc(C#Cc3ccccc3)cc2)cc(CN(CC(=O)O)CC(=O)O)n1 | – | > 100000 | – | > 100000 | – | 45800 | – | 41800 | – | > 100000 | – | 47100 | – | > 100000 | – | > 100000 | – | 97500 | – | 39900
